According to PubChem BioAssay AID588490 (The Scripps Research Institute Molecular Screening Center, 2011):

How the values were obtained:
Assay in all cases: PubChem AID 588490; call rule not given here
[1] = molecular target: Protein-arginine deiminase type-3 (Homo sapiens) (UniProt Q9ULW8); settings: recombinant PAD1-4, BAEE citrulline colorimetric absorbance; PAD3
[2] = molecular target: Protein-arginine deiminase type-2 (Homo sapiens) (UniProt Q9Y2J8); settings: recombinant PAD1-4, BAEE citrulline colorimetric absorbance; PAD2
Protein-arginine deiminase type-2 (Homo sapiens), sequence (Q9Y2J8 whole entry, looked up): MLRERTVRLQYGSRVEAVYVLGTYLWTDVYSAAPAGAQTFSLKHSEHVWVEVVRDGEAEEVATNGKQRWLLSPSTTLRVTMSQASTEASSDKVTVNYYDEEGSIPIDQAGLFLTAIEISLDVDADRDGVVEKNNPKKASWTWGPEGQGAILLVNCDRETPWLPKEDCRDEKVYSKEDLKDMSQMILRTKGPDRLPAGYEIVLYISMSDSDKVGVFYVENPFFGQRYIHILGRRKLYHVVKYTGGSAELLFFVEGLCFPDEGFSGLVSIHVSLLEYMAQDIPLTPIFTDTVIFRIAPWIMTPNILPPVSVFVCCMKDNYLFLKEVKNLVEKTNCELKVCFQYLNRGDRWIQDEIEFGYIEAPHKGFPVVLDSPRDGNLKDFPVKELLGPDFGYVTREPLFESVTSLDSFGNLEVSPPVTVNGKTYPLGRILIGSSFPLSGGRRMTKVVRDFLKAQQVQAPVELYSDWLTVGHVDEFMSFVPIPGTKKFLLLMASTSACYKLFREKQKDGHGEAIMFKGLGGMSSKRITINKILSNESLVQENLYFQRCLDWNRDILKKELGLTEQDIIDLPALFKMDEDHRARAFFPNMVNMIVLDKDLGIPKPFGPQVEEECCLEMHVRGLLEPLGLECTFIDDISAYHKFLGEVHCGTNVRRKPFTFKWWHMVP

[3] = molecular target: Protein-arginine deiminase type-1 (Homo sapiens) (UniProt Q9ULC6); settings: recombinant PAD1-4, BAEE citrulline colorimetric absorbance; PAD1
Protein-arginine deiminase type-1 (Homo sapiens), sequence (Q9ULC6 whole entry, looked up): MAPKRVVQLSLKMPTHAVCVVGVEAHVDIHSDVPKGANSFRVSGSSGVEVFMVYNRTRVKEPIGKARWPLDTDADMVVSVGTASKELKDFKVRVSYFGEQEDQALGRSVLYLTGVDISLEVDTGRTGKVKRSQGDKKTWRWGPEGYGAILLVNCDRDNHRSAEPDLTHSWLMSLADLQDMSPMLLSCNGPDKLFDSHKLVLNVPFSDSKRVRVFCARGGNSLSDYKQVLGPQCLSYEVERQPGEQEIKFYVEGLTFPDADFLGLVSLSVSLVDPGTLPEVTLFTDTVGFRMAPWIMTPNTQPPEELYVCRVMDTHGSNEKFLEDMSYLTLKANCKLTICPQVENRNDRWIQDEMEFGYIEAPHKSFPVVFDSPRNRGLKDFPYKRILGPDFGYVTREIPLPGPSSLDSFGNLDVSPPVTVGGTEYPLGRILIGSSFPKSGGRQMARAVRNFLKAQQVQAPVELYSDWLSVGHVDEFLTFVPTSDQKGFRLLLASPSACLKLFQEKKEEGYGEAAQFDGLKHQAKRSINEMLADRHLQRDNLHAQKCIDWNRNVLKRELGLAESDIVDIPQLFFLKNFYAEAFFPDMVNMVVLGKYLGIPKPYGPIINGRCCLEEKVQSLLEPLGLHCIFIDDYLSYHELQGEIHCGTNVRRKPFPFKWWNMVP

Measured: IC50

Protein-arginine deiminase type-3 (Homo sapiens), sequence (Q9ULW8 whole entry, looked up): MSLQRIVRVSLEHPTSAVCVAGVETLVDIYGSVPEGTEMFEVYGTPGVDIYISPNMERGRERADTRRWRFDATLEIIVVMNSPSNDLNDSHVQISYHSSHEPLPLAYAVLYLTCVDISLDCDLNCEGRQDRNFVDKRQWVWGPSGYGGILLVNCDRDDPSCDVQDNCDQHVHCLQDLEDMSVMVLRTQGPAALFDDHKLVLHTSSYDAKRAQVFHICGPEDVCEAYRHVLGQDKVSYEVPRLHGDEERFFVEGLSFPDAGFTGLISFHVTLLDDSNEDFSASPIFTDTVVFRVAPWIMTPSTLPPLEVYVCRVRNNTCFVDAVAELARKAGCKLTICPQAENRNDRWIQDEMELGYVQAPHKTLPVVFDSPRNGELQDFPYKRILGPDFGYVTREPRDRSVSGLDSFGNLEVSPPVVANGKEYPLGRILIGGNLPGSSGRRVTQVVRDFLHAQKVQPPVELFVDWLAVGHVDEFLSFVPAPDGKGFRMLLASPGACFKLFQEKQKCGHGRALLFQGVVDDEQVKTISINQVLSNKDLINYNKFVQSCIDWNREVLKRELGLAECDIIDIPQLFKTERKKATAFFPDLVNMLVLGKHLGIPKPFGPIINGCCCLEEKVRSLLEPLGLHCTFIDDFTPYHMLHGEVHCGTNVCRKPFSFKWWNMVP

NC1=CC(=O)c2ccc(-c3cccc(C(=O)O)n3)nc2C1=O
active: [1] 710 nM | [2] 200 nM | [3] 70 nM
